Laboratory results as given in article PMC9516332 (Frontiers in Oncology, 2022).
Read-outs that look alike come from different tables or passages of the source.

Columns and labels:
Experiment in all cases: Kinase panel profiling at 1 µmol/L (MSA or IMAP), percentage inhibition
Format in all cases: biochemical
[1] = tested on: panel of 255 wild-type kinases
[2] = target: panel of 255 wild-type kinases (Homo sapiens, UniProt P17612); conditions: read-out: %-inhibition at 1 µmol/L, PKACα
[3] = target: panel of 255 wild-type kinases (Homo sapiens, UniProt Q8N568); conditions: read-out: %-inhibition at 1 µmol/L, DCAMKL2
[4] = target: T1, panel of 255 wild-type kinases (Homo sapiens, UniProt Q16566); conditions: read-out: %-inhibition CaMK4
T1 sequence (Q16566 1-473): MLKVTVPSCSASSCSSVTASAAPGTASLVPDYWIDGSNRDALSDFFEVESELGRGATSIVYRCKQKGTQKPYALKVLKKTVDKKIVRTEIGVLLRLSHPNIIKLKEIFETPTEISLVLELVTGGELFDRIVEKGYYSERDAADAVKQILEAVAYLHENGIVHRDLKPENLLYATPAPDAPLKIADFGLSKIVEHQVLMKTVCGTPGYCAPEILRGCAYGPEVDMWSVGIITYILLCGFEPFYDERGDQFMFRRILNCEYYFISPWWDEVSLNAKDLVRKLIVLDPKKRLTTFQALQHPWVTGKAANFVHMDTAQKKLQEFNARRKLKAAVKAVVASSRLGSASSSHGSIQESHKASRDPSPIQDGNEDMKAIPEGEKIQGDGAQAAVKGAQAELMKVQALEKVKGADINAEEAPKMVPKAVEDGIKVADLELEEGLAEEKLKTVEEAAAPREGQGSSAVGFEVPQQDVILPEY

[5] = target: T2, panel of 255 wild-type kinases (Homo sapiens, UniProt O14920); conditions: read-out: %-inhibition at 1 µmol/L, IKKβ
T2 sequence (O14920 1-756): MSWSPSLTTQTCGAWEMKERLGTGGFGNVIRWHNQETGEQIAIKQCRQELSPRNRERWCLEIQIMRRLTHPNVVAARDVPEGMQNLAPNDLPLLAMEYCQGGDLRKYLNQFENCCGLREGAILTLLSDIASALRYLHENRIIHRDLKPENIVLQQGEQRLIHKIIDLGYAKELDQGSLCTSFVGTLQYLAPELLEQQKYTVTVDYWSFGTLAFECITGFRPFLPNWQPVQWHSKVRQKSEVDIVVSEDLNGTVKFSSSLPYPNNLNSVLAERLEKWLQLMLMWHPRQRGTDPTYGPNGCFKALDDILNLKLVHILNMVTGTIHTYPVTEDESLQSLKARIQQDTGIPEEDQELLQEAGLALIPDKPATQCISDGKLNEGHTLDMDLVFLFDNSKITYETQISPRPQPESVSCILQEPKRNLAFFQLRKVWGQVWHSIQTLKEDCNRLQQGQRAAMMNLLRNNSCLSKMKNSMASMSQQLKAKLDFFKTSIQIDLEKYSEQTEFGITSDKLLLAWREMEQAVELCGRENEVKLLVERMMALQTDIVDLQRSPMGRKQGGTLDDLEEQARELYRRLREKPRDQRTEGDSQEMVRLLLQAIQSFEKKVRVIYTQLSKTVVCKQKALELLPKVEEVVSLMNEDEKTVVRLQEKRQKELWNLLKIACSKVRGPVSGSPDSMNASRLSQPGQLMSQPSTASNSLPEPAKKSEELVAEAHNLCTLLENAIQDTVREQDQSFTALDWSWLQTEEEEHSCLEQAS

[6] = target: panel of 255 wild-type kinases (Homo sapiens, UniProt O00311); conditions: read-out: %-inhibition CDC7/ASK
[7] = target: panel of 255 wild-type kinases (Homo sapiens, UniProt P22694); conditions: read-out: %-inhibition at 1 µmol/L, PKACβ
[8] = target: panel of 255 wild-type kinases (Homo sapiens, UniProt Q02763); conditions: read-out: %-inhibition at 1 µmol/L, TIE2
[9] = target: panel of 255 wild-type kinases (Homo sapiens, UniProt P00519); conditions: read-out: %-inhibition ABL
[10] = target: T3, panel of 255 wild-type kinases (Homo sapiens, UniProt Q13188); conditions: read-out: %-inhibition, MST2
T3 sequence (Q13188 1-491): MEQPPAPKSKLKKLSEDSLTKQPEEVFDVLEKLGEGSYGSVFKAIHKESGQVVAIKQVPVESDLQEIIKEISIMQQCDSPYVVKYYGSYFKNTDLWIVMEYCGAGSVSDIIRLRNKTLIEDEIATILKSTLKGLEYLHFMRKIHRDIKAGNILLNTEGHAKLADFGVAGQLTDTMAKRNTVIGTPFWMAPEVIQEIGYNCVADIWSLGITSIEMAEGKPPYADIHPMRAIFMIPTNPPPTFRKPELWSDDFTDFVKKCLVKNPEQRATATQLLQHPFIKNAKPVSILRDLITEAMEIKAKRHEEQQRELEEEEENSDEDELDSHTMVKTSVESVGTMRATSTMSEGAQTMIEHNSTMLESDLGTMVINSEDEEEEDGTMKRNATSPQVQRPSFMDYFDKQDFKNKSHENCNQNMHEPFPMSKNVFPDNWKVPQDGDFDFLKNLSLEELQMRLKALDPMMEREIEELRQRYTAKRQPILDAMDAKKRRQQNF

[11] = target: panel of 255 wild-type kinases (Homo sapiens, UniProt P12931); conditions: read-out: %-inhibition at 1 µmol/L, SRC
[12] = target: panel of 255 wild-type kinases (Homo sapiens, UniProt P07949); conditions: read-out: %-inhibition at 1 µmol/L, RET
[13] = target: panel of 255 wild-type kinases (Homo sapiens, UniProt Q9Y243); conditions: read-out: %-inhibition AKT3
[14] = kinase FYN [isoform b], 1 µmol/L single concentration
[15] = kinase LYNb, 1 µmol/L single concentration
[16] = kinase PKCβ2, 1 µmol/L single concentration
[17] = kinase SRM, 1 µmol/L single concentration
[18] = kinase PKACα, 1 µmol/L single concentration
[19] = kinase DCAMKL2, 1 µmol/L single concentration
[20] = CaMK4 kinase assay, 1 µmol/L single concentration
[21] = kinase IKKβ, 1 µmol/L single concentration
[22] = CDC7/ASK kinase assay, 1 µmol/L single concentration
[23] = kinase PKACβ, 1 µmol/L single concentration
[24] = kinase TIE2, 1 µmol/L single concentration
[25] = ABL kinase assay, 1 µmol/L single concentration
[26] = MST2, 1 µmol/L single concentration
[27] = kinase SRC, 1 µmol/L single concentration
[28] = kinase RET, 1 µmol/L single concentration
[29] = AKT3 kinase assay, 1 µmol/L single concentration

Row | SMILES | %-inhibition at 1 µmol/L, FYN [isoform b] [1, 14] | %-inhibition at 1 µmol/L, LYNb [1, 15] | %-inhibition at 1 µmol/L, PKCβ2 [1, 16] | %-inhibition at 1 µmol/L, SRM [1, 17] | inhibition at 1 µM [2, 18] | inhibition at 1 µM [3, 19] | inhibition at 1 µM [4, 20] | inhibition at 1 µM [5, 21] | inhibition at 1 µM [6, 22] | inhibition at 1 µM [7, 23] | inhibition at 1 µM [8, 24] | inhibition at 1 µM [9, 25] | inhibition at 1 µM [10, 26] | inhibition at 1 µM [11, 27] | inhibition at 1 µM [12, 28] | inhibition at 1 µM [13, 29] | other results
1 | CCN1C(=O)N(c2c(F)c(OC)cc(OC)c2F)Cc2cnc3[nH]c(CN4CCOCC4)cc3c21 [pemigatinib] | 14% | 64% | -1.57% | -3.44% | -9% | 27% | 1.2% | -1.22% | -3.54% | -7% | 28% | 10% | 7% | 2.67% | 55% | -2.7% | 
2 | Cn1cc(-c2cc3c(N4CCN(c5ncc([C@@](C)(N)c6ccc(F)cc6)cn5)CC4)ncnn3c2)cn1 [avapritinib] | 3% | 83% | -0.278% | 0.441% | -20% | 3.65% | -0.588% | 0.049% | 0.0396% | -19% | 3.23% | 57% | 0.434% | 66% | 96% | -5% | 
3 | CNC(=O)c1ccc(-c2cnc3ncc(Cc4ccc5ncccc5c4)n3n2)cc1F [capmatinib] |  |  |  |  |  |  |  |  |  |  |  |  |  |  |  |  | %-inhibition at 1 µmol/L, FYN [isoform b] [1]: -1.2%; %-inhibition at 1 µmol/L, LYNb [1]: 0.305%; %-inhibition at 1 µmol/L, PKCβ2 [1]: -2%; %-inhibition at 1 µmol/L, SRM [1]: -0.916%; inhibition at 1 µM [2]: -28%; inhibition at 1 µM [3]: -1.61%; inhibition at 1 µM [4]: -2.8%; inhibition at 1 µM [5]: -0.588%; inhibition at 1 µM [6]: -1.4%; inhibition at 1 µM [7]: -9%; inhibition at 1 µM [8]: -3.44%; inhibition at 1 µM [9]: -1.84%; inhibition at 1 µM [10]: -3.3%; inhibition at 1 µM [11]: -1.77%; inhibition at 1 µM [12]: 11%; inhibition at 1 µM [13]: -5%
4 | C[C@H](Nc1ncnc2nc[nH]c12)c1cc2cccc(Cl)c2c(=O)n1-c1ccccc1 [duvelisib] | 0.6% | 3% | 1.61% | 4% | -7.56% | 7.51% | -3% | 0.466% | 0.486% | -16% | -0.0949% | -2% | 4% | -1.74% | 8% | 0.279% | inhibition of profiled kinases in biochemical assays ([1]; 1 µmol/L inhibitor): did not inhibit FLT3 or any of the other profiled tyrosine or serine/threonine kinases
